Literature values, collected in patent US10092573B2, “Gastric and colonic formulations and methods for making and using them” (Salix Pharmaceuticals, Inc., priority 2010, dated 2018).
“Also recorded” adds a separate entry of the source. Like-named read-outs stand apart in the source and are kept apart here.

Key:
[1] = not given; remark: listed apart in the source

association with ischemic colitis (10 mg tablet form in combination with HALFLYTELY)	association with ischemic colitis (doses of 20 mg)	share of the ingested erythritol that enters the colon ([1]; in vivo)	SMILES	ischemic colitis (widespread chronic use at a lower dosage range, often daily, for constipation or bloating)	effect on creatinine, urea or electrolytes (sodium, potassium, chloride, phosphate) output ([1]; 24 hour output, renal)	doses with no recorded significant human gastroenterological side effects ([1]; human)	carcinogenic, mutagenic or teratogenic potential ([1]; in vivo)	systemic metabolism and excretion of absorbed erythritol ([1]; in vivo)	toxicological effects in safety studies ([1]; in vivo)
less frequently	on rare occasions	–	CC(=O)Oc1ccc(C(c2ccc(OC(C)=O)cc2)c2ccccn2)cc1 [Bisacodyl, 4,4′-(pyridin-2-ylmethylene) bis(4,1-phenylene) diacetate]	No ischemic colitis has been consistently observed or reported	–	–	–	–	–
–	–	about 10%	OC[C@@H](O)[C@@H](O)CO [Erythritol, (2R,3S)-butane-1,2,3,4-tetraol]	–	no effect; also recorded: does not influence	up to 1000 mg/kg body weight/day	does not have any	not metabolized systemically and is excreted unchanged in urine	no toxicological effects
